Where two headings read alike, the source gives them in different places.
What was measured:
[1] = tested on: HepG2 cells; test: Apoptotic analysis annexin-V/PI flow cytometry; assay type: cell-based, human; settings: 10-60 μM, 48 hours, FIG. 3
Procedure: The percentage of apototic cells was determined according to the manufacturer's protocol by using an annexin-V/FITC kit/propidium iodine (PI) flow cytometer. To facilitate the detection of apoptosis, the treated cells were centrifuged for 5 min at a speed of 1,000×g at room temperature, and then resuspended and washed once with 5 mL PBS before being stained with annexin-V/PI (apoptosis detection kit, R&D Systems, Taipei, Taiwan).
(§1) HepG2 cells were treated with 10-60 μM of the test compounds for 48 hours, then cell cycle distribution and apoptosis analysis was analyzed by flow cytometry, with the subG1 phase being stained with propidium idoine (PI). Results are illustrated in FIGS. 2 and 3.

[2] = tested on: HT29; test: MTT cell viability, HT29; assay type: cell-based, human; settings: Homo sapiens, HT-29, 48 hours, Mean ± SD, read-out: Growth Inhibition IC50 HT-29
Procedure: (§2) Cell lines used in the present disclosure include human liver carcinonoma cell line HepG2, human bladder carcinoma cell line BFTC905, human colon carcinoma cell lines HT29 and SW480, and human leukemia cell lines HL60 and Jurkat T, and mouse lymphocytic leukemia cell line L1210. Each cell lines were cultured and maintained in Dulbecco's modified Eagle media (DMEM) or RPMI 1640 medium supplemented with 10% heat inactivated fetal bovine serum (FBS), 1% penicillin/streptomycin, in 5% CO2195% air at 37° C.
(§3) The absorbance of the solution at 540 nm was measured by spectrophotometer. The IC50 values were defined as the drug concentration that inhibit 50% cell growth by setting the viability of untreated cells as 100%. Values were represented as the mean±SD from at least 3 independent experiments.
(§4) Effects of the compounds of formula (I) of this disclosure, specifically, NOC15 and NC 15, on HepG2 cells (liver carcinoma), BFTC905 (bladder carcinoma), HT29 (colon carcinoma), SW480 (colon carcinoma) and HL60 (leukemia) were assessed by cell viability analysis in accordance with procedures described above, in which compound 2, and other known anti-cancer agents including 5-FU, cisplatin and doxorubicin were respectively used as positive controls.

[3] = tested on: Jurkat T cells; test: Cell cycle distribution by flow cytometry, Jurkat T cells; assay type: cell-based, human; settings: for percentage of cells in subG1 phase: FIG. 5, FIG. 7
Procedure: (§5) Cultured cells with or without pre-treatment of the compounds of this invention (i.e., norcantharidin, NOC15, or NC15, 10-60 μM for 48 hours) were harvested from the cultured media and fixed by incuating with 75% iced cold ehtanol and kept at −20° C. until analysis. The fixed cells were then washed with PBS, and treated with […] (200 μg/mL, 500 μL) for about 1.5 hour at 37° C. Precipitated cells were collected by centrifugation and re-suspended in a buffer solution containing propidium iodine (PI) (40 μg/ml) and incubated in the dark for 20 min at 20-25° C. before being subject to flow cytometry analysis, where cell numbers at respective cell cycles were determined.
Cell cycle distribution was determined by flow cytometry as described in the “Materials and Methods” section. Results is depicted in FIG. 5.
In this example, Jurkat T cells were treated with or without NC15 (2.513 μM) for 24 or 48 hours before being subject to cell cycle analysis. Results are depicted in FIG. 7.

[4] = tested on: human lymphoblast cells (NHL); test: Cell viability (CCK-8), normal lymphoblast cells; assay type: cell-based; settings: 24 hours (NC15: 24 and 48 hours), FIG. 4, FIG. 6
Procedure: The cell viability assays were performed in 96-well plates. The 100 μl of cell suspensions (NHL or Jurkat T cells, 5×10^3 cells/well, serum-free medium) were inoculated in the wells and the plates were pre-incubated in the incubator for 24 hours (pre-incubated for 22 hours and stimulated with PMA 5 ng/ml plus ionomycin 250 ng/ml for 2 hours in PMAI-treated groups). Then, various concentrations of norcantharidin (0, 2, 4, 15, 30 and 60 μM) or NOC15 (0, 0.25, 0.5, 1, 2 and 4 μM) were added into the culture media in the wells. After 24 hours of incubation, the cell viability of NHL and Jurkat T cells was measured by cell counting kit-8 (CCK-8, Sigma). The half maximal inhibitory concentrations (IC50) of norcantharidin and NOC15 on Jurkat T cells and NHL cells were calculated.
In this example, a model of phorbol 12-myristate 13-acetate plus ionomycin (PMAI) activated leukemia Jurkat T cells model was employed to investigate the effects of the NOC15 on human leukemia cells (Jurkat T cells) and human lymphoblast cells (NHL).

[5] = tested on: BFTC905; test: MTT cell viability, BFTC905; assay type: cell-based, human; settings: Homo sapiens, BFTC-905, 48 hours, Mean ± SD, read-out: Growth Inhibition IC50 BFTC905
Procedure: as §2, §3, §4

[6] = tested on: HepG2 cells; test: Cell cycle distribution by flow cytometry (PI), HepG2; assay type: cell-based, human; settings: 48 hours, FIG. 2
Procedure: as §5, §1

[7] = tested on: HepG2 cells; test: MTT cell viability, HepG2; assay type: cell-based, human; settings: Homo sapiens, Mean ± SD
Procedure: as §2, §3, §4
In this example, effects of NOC15 or NC15 on HepG2 cells were assessed by cell viability analysis in accordance with procedures described above, in which compound 2 was used as a positive control.

[8] = tested on: HL60; test: MTT cell viability, HL60; assay type: cell-based, human
Procedure: as §2, §3, §4

[9] = tested on: L1210 cells; test: Ex vivo growth of leukemia cells (L1210); assay type: cell-based, mouse; settings: read-out: concentration suppressing ex vivo growth of L1210 cells for about 50%

How did the “percentage of apoptotic cells / cell death” value [1] turn out when `CC(C)=CCCC(C)=CCCC(C)=CCN1C(=O)C2C3CCC(O3)C2C1=O` (stereo not drawn) [Compound 18, N-farnesyl-7-oxabicyclo[2.2.1]heptane-2,3-dicarboximide] was run?
The value was “dose-dependent”.

And the IC50 [2]?
Its IC50 is 14.8 ± 1.9 µM.

And the “number of cells in G0/G1 phase” value ([3]; 2.513 μM, 48 hours, vs control, FIG. 7D)?
Its value is “decreased”.

What about the “percentage of cells in subG1 phase” value ([3]; treated 24 hours (NC15 2.513 μM)) of the same compound?
Its value is “started to increase”.

And the “percentage of cells in subG1 phase” value ([3]; treated 48 hours (NC15 2.513 μM))?
The value was “reached a significant level”.

And the “cytotoxicity to normal lymphatic/lymphoblast cells (NHL)” value [4]?
The value was “did not possess significant cytotoxicity”.

And the IC50 [5]?
The IC50 was 9.3 ± 0.6 µM.

What about the “fraction of apoptotic cells (subG1)” value ([6]; 10 μM) of the same compound?
The value was 3.7%.

What about the “fraction of apoptotic cells (subG1)” value ([6]; 60 μM) of the same compound?
Its value is 19.8%.

What about the “accumulation of cells in G2/M phase” value ([6]; 10-60 μM) of the same compound?
Its value is “inducing the accumulation of cells in G2/M phase”.

What about the IC50 ([7]; HepG2, 24 h, read-out: Growth Inhibition On Hepatic Cancer Cells IC50 24 hrs) of the same compound?
Its IC50 is 19.4 ± 2.1 µM.

What about the IC50 ([7]; HepG2, 48 h, MTT, 48 hours, read-out: Growth Inhibition IC50 HepG2) of the same compound?
Its IC50 is 16.4 ± 1.2 µM.

And the IC50 ([7]; HepG2, 48 h, read-out: Growth Inhibition On Hepatic Cancer Cells IC50 48 hrs)?
Its IC50 is 16.4 ± 1.2 µM.

And the IC50 ([7]; HepG2, 72 h, read-out: Growth Inhibition On Hepatic Cancer Cells IC50 72 hrs)?
Its IC50 is 12.8 ± 2.5 µM.

What about the IC50 ([8]; Homo sapiens, HL-60, MTT, 48 hours, Mean ± SD, read-out: Growth Inhibition IC50 HL-60) of the same compound?
The IC50 was 79.8 ± 1.1 µM.

And the “response of leukemia cell line HL60 to treatment” value ([8]; in words, from Table 1)?
Its value is “did respond”.

What about the IC50 ([9]; L1210, time not given, listed as NC15) of the same compound?
Its IC50 is roughly 2.6 µM.

And the IC50 ([9]; Mus musculus, L1210, L1210, time not given)?
Its IC50 is roughly 1.6 µM.

Source: patent publication US9359373B1, “Lipophilic N-substituted norcantharimide derivatives and uses thereof” (priority 2014, dated 2016)
